Assay results published in ChEMBL document CHEMBL5634084, “Design and optimization of selective and potent CDK9 inhibitors with flavonoid scaffold for the treatment of acute myeloid leukemia” (Eur J Med Chem, 2023).
Calls of active or inactive are those of the source. The calls are words filed in the database; no cut-off is given here.

How the values were obtained:
[1] = test system: MV4-11; assay: Antiproliferative activity against human MV4-11 cells assessed as reduction in cell viability measured after 72 hrs; assay type: functional, cell-based; conditions: MV4-11, 72 h
[2] = molecular target: CDK2/Cyclin A2 (Homo sapiens, UniProt P24941); assay: Inhibition of CDK2/CyclinA2 (unknown origin) by ADP-Glo assay; assay type: protein-complex assay
[3] = molecular target: CDK6/cyclin D1 (Homo sapiens, UniProt Q00534); assay: Inhibition of CDK6/CyclinD1 (unknown origin) by ADP-Glo assay; assay type: protein-complex assay
Sequence of CDK6/cyclin D1 (P24385 whole entry): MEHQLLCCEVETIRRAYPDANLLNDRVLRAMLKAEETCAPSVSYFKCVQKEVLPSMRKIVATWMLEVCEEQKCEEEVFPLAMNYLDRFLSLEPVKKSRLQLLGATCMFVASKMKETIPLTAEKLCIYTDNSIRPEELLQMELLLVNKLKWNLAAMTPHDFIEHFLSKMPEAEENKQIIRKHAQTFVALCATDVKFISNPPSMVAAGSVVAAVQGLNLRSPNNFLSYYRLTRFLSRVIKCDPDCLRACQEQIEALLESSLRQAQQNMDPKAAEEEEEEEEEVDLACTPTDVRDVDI
Sequence of CDK6/cyclin D1 (Q00534 whole entry): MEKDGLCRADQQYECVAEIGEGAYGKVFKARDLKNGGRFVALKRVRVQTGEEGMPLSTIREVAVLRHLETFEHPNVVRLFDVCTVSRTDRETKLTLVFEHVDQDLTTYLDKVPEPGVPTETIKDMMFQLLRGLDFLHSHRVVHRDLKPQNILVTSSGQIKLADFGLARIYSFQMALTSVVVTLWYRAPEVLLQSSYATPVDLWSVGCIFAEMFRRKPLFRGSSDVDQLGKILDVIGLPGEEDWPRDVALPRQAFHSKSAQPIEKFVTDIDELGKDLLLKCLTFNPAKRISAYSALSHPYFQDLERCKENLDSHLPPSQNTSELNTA

[4] = molecular target: CDK9/cyclin T1 (Homo sapiens, UniProt P50750); assay: Inhibition of CDK9/CyclinT1 (unknown origin) by ADP-Glo assay; assay type: protein-complex assay
Sequence of CDK9/cyclin T1 (O60563 whole entry, the tested form may be a part): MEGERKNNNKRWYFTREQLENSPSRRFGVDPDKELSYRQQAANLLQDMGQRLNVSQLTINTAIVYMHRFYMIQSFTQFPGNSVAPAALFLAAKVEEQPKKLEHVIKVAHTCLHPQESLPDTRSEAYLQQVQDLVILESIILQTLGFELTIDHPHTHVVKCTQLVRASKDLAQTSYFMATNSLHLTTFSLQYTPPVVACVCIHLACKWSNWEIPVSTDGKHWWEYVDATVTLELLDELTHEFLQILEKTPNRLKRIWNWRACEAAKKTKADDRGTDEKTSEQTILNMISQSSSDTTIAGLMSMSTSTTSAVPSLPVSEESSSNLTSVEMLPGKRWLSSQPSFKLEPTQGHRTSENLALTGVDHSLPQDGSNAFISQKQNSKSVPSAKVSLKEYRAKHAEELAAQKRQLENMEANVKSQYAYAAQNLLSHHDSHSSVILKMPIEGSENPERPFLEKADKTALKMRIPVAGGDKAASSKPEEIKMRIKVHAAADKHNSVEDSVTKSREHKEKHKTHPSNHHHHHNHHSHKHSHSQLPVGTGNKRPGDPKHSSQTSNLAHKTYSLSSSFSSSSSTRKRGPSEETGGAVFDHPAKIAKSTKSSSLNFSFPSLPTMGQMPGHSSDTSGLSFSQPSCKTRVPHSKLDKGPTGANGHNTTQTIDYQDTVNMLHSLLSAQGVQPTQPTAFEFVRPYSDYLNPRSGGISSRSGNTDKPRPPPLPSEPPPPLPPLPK
Sequence of CDK9/cyclin T1 (P50750 whole entry, the tested form may be a part): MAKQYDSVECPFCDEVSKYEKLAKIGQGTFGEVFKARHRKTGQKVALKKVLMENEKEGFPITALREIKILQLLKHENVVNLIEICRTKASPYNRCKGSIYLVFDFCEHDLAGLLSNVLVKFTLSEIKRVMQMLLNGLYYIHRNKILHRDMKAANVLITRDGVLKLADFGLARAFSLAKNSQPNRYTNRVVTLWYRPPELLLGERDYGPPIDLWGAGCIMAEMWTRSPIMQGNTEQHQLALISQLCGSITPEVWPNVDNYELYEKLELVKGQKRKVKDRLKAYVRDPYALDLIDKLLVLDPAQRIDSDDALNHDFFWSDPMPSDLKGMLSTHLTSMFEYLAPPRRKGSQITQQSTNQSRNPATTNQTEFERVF

[5] = molecular target: Cyclin-dependent kinase 12 (Homo sapiens) (UniProt Q9NYV4); assay: Inhibition of wild type partial length human CDK12 (697 to 1077 residues) to expressed in mammalian expression system at 1 uM by KINOMEscan analysis
Sequence of Cyclin-dependent kinase 12 (Homo sapiens) (Q9NYV4 whole entry, looked up, the tested form may be a part): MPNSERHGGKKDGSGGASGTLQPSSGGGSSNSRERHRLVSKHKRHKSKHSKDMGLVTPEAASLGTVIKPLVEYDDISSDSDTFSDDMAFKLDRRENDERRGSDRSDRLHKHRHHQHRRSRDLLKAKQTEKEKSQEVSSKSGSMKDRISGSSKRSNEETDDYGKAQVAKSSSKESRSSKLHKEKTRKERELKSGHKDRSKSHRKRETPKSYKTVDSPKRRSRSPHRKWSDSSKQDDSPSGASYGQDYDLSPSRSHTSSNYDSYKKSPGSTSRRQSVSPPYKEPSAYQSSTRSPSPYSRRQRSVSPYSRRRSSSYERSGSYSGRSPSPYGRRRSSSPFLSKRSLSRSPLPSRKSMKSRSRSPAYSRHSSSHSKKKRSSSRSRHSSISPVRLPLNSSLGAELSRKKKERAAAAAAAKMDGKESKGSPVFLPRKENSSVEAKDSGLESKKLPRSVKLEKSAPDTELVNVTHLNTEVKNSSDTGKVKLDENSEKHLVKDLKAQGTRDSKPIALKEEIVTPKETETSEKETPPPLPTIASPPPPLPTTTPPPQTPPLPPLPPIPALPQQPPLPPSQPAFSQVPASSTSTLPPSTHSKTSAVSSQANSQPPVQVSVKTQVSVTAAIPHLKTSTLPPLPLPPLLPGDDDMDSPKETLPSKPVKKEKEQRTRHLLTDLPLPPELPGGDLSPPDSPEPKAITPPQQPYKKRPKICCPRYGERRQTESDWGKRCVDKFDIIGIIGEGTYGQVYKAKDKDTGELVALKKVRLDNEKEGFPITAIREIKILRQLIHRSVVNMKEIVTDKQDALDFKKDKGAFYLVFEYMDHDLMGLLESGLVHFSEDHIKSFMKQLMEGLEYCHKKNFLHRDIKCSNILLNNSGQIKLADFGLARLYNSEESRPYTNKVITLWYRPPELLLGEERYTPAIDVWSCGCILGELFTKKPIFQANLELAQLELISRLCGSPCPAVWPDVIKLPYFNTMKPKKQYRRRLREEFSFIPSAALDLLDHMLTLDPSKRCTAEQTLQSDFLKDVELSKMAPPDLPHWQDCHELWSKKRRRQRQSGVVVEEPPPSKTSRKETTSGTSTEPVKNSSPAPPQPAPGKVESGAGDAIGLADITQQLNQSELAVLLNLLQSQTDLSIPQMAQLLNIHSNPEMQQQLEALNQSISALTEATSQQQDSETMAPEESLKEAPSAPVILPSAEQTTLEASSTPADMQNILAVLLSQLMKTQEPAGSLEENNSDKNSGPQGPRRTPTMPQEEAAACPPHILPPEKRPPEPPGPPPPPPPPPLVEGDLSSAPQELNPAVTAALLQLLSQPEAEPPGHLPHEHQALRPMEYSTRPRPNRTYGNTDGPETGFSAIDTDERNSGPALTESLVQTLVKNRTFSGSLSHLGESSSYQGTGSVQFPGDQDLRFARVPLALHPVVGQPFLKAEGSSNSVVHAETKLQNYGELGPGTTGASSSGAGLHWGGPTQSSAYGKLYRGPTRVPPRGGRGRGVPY

[6] = molecular target: Dual specificity mitogen-activated protein kinase kinase 5 (Homo sapiens) (UniProt Q13163); assay: Inhibition of wild type partial length human MEK5 (98 to 448 residues) expressed in mammalian expression system at 1 uM by KINOMEscan analysis
Sequence of Dual specificity mitogen-activated protein kinase kinase 5 (Homo sapiens) (Q13163 whole entry, the tested form may be a part): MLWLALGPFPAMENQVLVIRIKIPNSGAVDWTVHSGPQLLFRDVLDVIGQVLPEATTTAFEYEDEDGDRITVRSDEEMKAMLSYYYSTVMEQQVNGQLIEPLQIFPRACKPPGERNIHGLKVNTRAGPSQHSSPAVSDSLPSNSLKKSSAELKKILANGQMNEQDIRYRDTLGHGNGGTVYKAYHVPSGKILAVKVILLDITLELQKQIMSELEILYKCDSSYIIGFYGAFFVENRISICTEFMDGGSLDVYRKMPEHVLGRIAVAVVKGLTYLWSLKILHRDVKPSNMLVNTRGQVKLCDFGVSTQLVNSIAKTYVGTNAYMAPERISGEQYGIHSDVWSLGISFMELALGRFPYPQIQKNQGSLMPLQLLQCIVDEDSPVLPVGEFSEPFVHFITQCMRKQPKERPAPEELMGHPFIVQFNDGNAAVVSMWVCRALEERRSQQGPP

[7] = molecular target: Serine/threonine-protein kinase SIK3 (Homo sapiens) (UniProt Q9Y2K2); assay: Inhibition of wild type partial length human QSK (90 to 395 residues) expressed in mammalian expression system at 1 uM by KINOMEscan analysis
Sequence of Serine/threonine-protein kinase SIK3 (Homo sapiens) (Q9Y2K2 whole entry, looked up, the tested form may be a part): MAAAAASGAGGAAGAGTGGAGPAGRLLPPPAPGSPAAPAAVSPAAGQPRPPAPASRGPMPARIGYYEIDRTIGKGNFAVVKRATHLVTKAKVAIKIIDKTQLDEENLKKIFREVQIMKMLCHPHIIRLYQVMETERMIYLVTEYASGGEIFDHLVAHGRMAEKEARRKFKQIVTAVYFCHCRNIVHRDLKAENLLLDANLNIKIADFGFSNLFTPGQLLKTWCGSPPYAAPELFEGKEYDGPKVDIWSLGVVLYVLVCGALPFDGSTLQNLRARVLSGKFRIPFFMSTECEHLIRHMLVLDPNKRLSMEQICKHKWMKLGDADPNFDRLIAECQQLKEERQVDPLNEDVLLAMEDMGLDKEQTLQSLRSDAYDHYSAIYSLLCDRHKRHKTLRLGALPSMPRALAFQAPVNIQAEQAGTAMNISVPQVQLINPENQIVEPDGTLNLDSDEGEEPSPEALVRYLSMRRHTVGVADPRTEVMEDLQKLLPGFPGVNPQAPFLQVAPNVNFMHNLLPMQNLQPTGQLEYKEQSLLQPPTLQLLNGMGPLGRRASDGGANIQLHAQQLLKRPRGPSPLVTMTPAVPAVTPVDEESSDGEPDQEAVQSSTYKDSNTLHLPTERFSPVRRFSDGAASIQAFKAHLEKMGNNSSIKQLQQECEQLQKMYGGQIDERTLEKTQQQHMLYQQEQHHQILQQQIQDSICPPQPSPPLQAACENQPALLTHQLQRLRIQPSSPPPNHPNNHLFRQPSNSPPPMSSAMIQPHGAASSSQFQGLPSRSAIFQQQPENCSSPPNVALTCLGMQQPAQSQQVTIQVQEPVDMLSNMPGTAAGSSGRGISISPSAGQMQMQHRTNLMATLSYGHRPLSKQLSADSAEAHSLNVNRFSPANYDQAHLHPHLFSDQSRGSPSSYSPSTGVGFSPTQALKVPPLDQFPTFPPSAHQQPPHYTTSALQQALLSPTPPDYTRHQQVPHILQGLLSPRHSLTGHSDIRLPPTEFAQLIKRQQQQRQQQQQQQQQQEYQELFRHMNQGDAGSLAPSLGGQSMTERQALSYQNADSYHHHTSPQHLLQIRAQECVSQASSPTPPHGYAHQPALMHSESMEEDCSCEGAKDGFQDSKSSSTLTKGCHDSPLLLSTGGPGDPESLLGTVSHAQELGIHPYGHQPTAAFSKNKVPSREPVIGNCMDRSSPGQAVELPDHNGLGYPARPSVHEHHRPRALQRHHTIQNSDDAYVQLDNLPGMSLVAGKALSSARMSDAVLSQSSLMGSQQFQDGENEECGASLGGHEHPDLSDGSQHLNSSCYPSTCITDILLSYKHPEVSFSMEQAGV

[8] = Metabolic stability of the compound in rat liver microsomes at 10 uM measured for 60 mins in presence of NADPH by LC-MS/MS analysis; assay type: ADME, Microsome; conditions: 1 h
[9] = Metabolic stability of the compound in rat plasma at 10 uM measured for 60 mins by LC-MS/MS analysis; assay type: ADME, cell-free; conditions: 1 h
[10] = test system: THP-1; assay: Antiproliferative activity against human THP-1 cells assessed as reduction in cell viability measured after 72 hrs; assay type: functional, cell-based; conditions: THP-1, 72 h
[11] = test system: BT-549; assay: Antiproliferative activity against human BT-549 cells assessed as reduction in cell viability measured after 72 hrs; assay type: functional, cell-based; conditions: BT-549, 72 h
[12] = test system: HT-29; assay: Antiproliferative activity against human HT-29 cells assessed as reduction in cell viability measured after 72 hrs; assay type: functional, cell-based; conditions: HT-29, 72 h
[13] = Toxicity in BALB/c mouse xenografted with human MV4-11 cells assessed as animal's mortality at 7.5 to 15 mg/kg, iv qd; assay type: organism-based; conditions: in vivo, dose 7.5-15 mg/kg
[14] = molecular target: Cyclin-dependent kinase 9 (Homo sapiens) (UniProt P50750); assay: Inhibition of CDK9 in human MV4-11 cells assessed as reduction in RNA polymerase 2 phosphorylation at Ser2 residue incubated for 12 hrs by western blot analysis; assay type: cell-based; conditions: dose 0.1-4 µM
Sequence of Cyclin-dependent kinase 9 (Homo sapiens) (P50750 whole entry): as the sequence (P50750 whole entry, the tested form may be a part) above

[15] = molecular target: Cyclin-dependent kinase 9 (Homo sapiens) (UniProt P50750); assay: Inhibition of CDK9 in human MV4-11 cells assessed as reduction in c-Myc protein expression incubated for 12 hrs by western blot analysis; assay type: cell-based; conditions: dose 0.1-4 µM
[16] = molecular target: Cyclin-dependent kinase 9 (Homo sapiens) (UniProt P50750); assay: Inhibition of CDK9 in human MV4-11 cells assessed as reduction in Mcl-1 protein expression incubated for 12 hrs by western blot analysis; assay type: cell-based; conditions: dose 0.1-4 µM
[17] = molecular target: Cyclin-dependent kinase 9 (Homo sapiens) (UniProt P50750); assay: Inhibition of CDK9 in human MV4-11 cells assessed as reduction in Mcl-1 mRNA expression at 0.1 to 2 uM incubated for 12 hrs by qPCR analysis; assay type: cell-based; conditions: dose 0.1-2 µM
[18] = test system: MV4-11; assay: Induction of apoptosis in human MV4-11 cells assessed as early apoptotic cells at 0.1 uM incubated for 24 hrs by AnnexinV-FITC/PI staining based flow cytometry (reference value: 1.42%); assay type: functional
[19] = test system: MV4-11; assay: Induction of apoptosis in human MV4-11 cells assessed as late apoptotic cells at 0.1 uM incubated for 24 hrs by AnnexinV-FITC/PI staining based flow cytometry (reference value: 5.21%); assay type: functional
[20] = test system: MV4-11; assay: Induction of apoptosis in human MV4-11 cells assessed as early apoptotic cells at 0.5 uM incubated for 24 hrs by AnnexinV-FITC/PI staining based flow cytometry (reference value: 1.42%); assay type: functional
[21] = test system: MV4-11; assay: Induction of apoptosis in human MV4-11 cells assessed as late apoptotic cells at 0.5 uM incubated for 24 hrs by AnnexinV-FITC/PI staining based flow cytometry (reference value: 5.21%); assay type: functional
[22] = test system: MV4-11; assay: Induction of apoptosis in human MV4-11 cells assessed as viable cells at 1 uM incubated for 24 hrs by AnnexinV-FITC/PI staining based flow cytometry (reference value: 93.4%); assay type: functional; conditions: read-out: Activity
[23] = test system: MV4-11; assay: Induction of apoptosis in human MV4-11 cells assessed as early apoptotic cells at 1 uM incubated for 24 hrs by AnnexinV-FITC/PI staining based flow cytometry (reference value: 1.42%); assay type: functional
[24] = test system: MV4-11; assay: Induction of apoptosis in human MV4-11 cells assessed as late apoptotic cells at 1 uM incubated for 24 hrs by AnnexinV-FITC/PI staining based flow cytometry (reference value: 5.21%); assay type: functional
[25] = test system: MV4-11; assay: Induction of apoptosis in human MV4-11 cells assessed as necrotic cells at 1 uM incubated for 24 hrs by AnnexinV-FITC/PI staining based flow cytometry (reference value: 0%); assay type: functional
[26] = test system: MV4-11; assay: Induction of apoptosis in human MV4-11 cells assessed as early apoptotic cells at 2 uM incubated for 24 hrs by AnnexinV-FITC/PI staining based flow cytometry (reference value: 1.42%); assay type: functional
[27] = test system: MV4-11; assay: Induction of apoptosis in human MV4-11 cells assessed as late apoptotic cells at 2 uM incubated for 24 hrs by AnnexinV-FITC/PI staining based flow cytometry (reference value: 5.21%); assay type: functional
[28] = test system: MV4-11; assay: Induction of apoptosis in human MV4-11 cells assessed as viable cells at 4 uM incubated for 24 hrs by AnnexinV-FITC/PI staining based flow cytometry (reference value: 93.4%); assay type: functional; conditions: read-out: Activity
[29] = test system: MV4-11; assay: Induction of apoptosis in human MV4-11 cells assessed as early apoptotic cells at 4 uM incubated for 24 hrs by AnnexinV-FITC/PI staining based flow cytometry (reference value: 1.42%); assay type: functional
[30] = test system: MV4-11; assay: Induction of apoptosis in human MV4-11 cells assessed as late apoptotic cells at 4 uM incubated for 24 hrs by AnnexinV-FITC/PI staining based flow cytometry (reference value: 5.21%); assay type: functional
[31] = test system: MV4-11; assay: Induction of apoptosis in human MV4-11 cells assessed as necrotic cells at 4 uM incubated for 24 hrs by AnnexinV-FITC/PI staining based flow cytometry (reference value: 0%); assay type: functional
[32] = test system: MV4-11; assay: Induction of cell cycle arrest in human MV4-11 cells assessed as accumulation of cells at S phase at 0.1 uM incubated fo 36 hrs by propidium iodide staining based flow cytometry (reference value: 26.5%); assay type: functional
[33] = test system: MV4-11; assay: Induction of cell cycle arrest in human MV4-11 cells assessed as accumulation of cells at S phase at 0.2 uM incubated fo 36 hrs by propidium iodide staining based flow cytometry (reference value: 26.5%); assay type: functional
[34] = test system: MV4-11; assay: Induction of cell cycle arrest in human MV4-11 cells assessed as accumulation of cells at G2/M phase at 0.2 uM incubated fo 36 hrs by propidium iodide staining based flow cytometry (reference value: 9.5%); assay type: functional
[35] = test system: MV4-11; assay: Induction of cell cycle arrest in human MV4-11 cells assessed as accumulation of cells at S phase at 0.8 uM incubated fo 36 hrs by propidium iodide staining based flow cytometry (reference value: 26.5%); assay type: functional

## COc1cc(O)c2c(=O)cc(-c3ccc(N4CCN(C)CC4)cc3)oc2c1C1=CCN(C)CC1
[1]
  IC50: 60 nM
[2]
  IC50: 533 nM
[3]
  IC50: 589 nM
[4]
  IC50: 6.7 nM
[5]
  inhibition: 0%
[6]
  inhibition: 0%
[7]
  inhibition: 3.3%
[8]
  Stability: Stable
[9]
  Stability: Stable
[10]
  IC50: 450 nM
[11]
  IC50: 210 nM
[12]
  IC50: 1060 nM
[13]
  Activity: Non-Toxic
[14]
  inhibition: Dose-Dependent Effect
[15]
  inhibition: Dose-Dependent Effect
[16]
  inhibition: Dose-Dependent Effect
[17]
  inhibition: Active
[18]
  Activity: 1.46%
[19]
  Activity: 6.98%
[20]
  Activity: 1.96%
[21]
  Activity: 10.2%
[22]
  viability at 1 µM: 69.1%
[23]
  Activity: 9.95%
[24]
  Activity: 20.9%
[25]
  Activity: 0.01%
[26]
  Activity: 67%
[27]
  Activity: 29.8%
[28]
  viability at 4 µM: 7.98%
[29]
  Activity: 70.3%
[30]
  Activity: 21.3%
[31]
  Activity: 0.42%
[32]
  Activity: 21%
[33]
  Activity: 19%
[34]
  Activity: 7.1%
[35]
  Activity: 10.8%
